Results on 35 compounds are retold here after US9580449B2, “Compositions and methods for the production of pyrimidine and pyridine compounds with BTK inhibitory activity” (Merck Patent GmbH, priority 2011, dated 2017).

Structures are written as SMILES.

For the experiment, the target named is full-length human BTK (Homo sapiens (Human), UniProt Q06187). The experiment is described as follows: BTK IC50 enzyme assay (microfluidic off-chip mobility shift kinase assay). In kind it is biochemical. To be noted: incubated for 90 min. at 27 C; read-out: Time Dependent BTK Enzyme Assay IC50. The method, then: The following describes a microfluidic, off-chip mobility shift kinase assay used to measure inherent potency of compounds against BTK enzyme. Compounds described by embodiments of the present invention were assayed using this protocol and the data from the same is recorded in Table 2 within the column labeled: “Time Dependent BTK Enzyme Assay IC50”.
Chain of full-length human BTK (Q06187 whole entry): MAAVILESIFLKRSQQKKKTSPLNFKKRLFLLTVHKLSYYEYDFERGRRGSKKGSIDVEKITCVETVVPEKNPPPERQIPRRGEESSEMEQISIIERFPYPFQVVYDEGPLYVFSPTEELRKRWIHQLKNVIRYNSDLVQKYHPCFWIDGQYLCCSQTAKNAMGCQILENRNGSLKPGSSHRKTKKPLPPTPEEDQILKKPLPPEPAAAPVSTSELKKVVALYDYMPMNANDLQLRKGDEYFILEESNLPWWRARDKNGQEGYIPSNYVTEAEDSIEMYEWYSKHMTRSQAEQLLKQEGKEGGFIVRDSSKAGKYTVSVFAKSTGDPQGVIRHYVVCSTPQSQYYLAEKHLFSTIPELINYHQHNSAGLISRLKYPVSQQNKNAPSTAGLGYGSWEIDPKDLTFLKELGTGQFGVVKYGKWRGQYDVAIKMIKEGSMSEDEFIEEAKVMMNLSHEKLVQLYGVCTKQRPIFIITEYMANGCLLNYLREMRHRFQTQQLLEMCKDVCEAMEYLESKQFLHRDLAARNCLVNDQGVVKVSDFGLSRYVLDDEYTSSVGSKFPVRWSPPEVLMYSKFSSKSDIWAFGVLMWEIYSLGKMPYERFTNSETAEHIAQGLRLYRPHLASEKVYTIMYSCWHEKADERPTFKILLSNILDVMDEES
Stopped reactions were monitored at −2 PSI, −3000 V/−700 V in a LabChip 3000 plate reader from Caliper Life Sciences, a PerkinElmer Company (Hopkinton, Mass.), and the activity was measured by off-chip mobility shift assay measuring the charge/mass difference between substrate and product resulting from peptide phosphorylation. IC50 and efficacy were determined by plotting log [Inhibitor] vs. % Activity in GeneData Screener (Basel, Switzerland). […] I<1 uM and II>1 uM.
By IC50 is commonly meant the midpoint of a concentration-inhibition curve. On to `C=CC(=O)N1CCO[C@H](COc2ncnc(N)c2-c2ccc(Oc3ccccc3)cc2)C1` [A65, (S)-1-(2-(((6-amino-5-(4-phenoxyphenyl)pyrimidin-4-yl)oxy)methyl)morpholino)prop-2-en-1-one], for which the IC50 is less than 100 nM.
With `C=CC(=O)N1CCO[C@@H](COc2ncnc(N)c2-c2ccc(Oc3ccccc3)cc2)C1` [A66, (R)-1-(2-(((6-amino-5-(4-phenoxyphenyl)pyrimidin-4-yl)oxy)methyl)morpholino)prop-2-en-1-one], the IC50 is less than 100 nM.
`C#CC(=O)N1C2CCC1CC(CNc1ncnc(N)c1-c1ccc(Oc3ccccc3)cc1)C2` (centres unmarked) [A68, 1-(3-(((6-amino-5-(4-phenoxyphenyl)pyrimidin-4-yl)amino)methyl)-8-azabicyclo[3.2.1]octan-8-yl)prop-2-yn-1-one]: the IC50 was less than 100 nM.
For `C=CC(=O)Nc1cccc(Oc2ncnc(N)c2-c2cnn(Cc3ccc(C#N)cc3)c2)c1` [A69, N-(3-((6-amino-5-(1-(4-cyanobenzyl)-1H-pyrazol-4-yl)pyrimidin-4-yl)oxy)phenyl)acrylamide] the value was less than 1000 nM.
The value for `CN(C)C/C=C/C(=O)N1C2CCC1CC(CNc1ncnc(N)c1-c1ccc(Oc3ccccc3)cc1)C2` (centres unmarked) [A71, (E)-1-(3-(((6-amino-5-(4-phenoxyphenyl)pyrimidin-4-yl)amino)methyl)-8-azabicyclo[3.2.1]octan-8-yl)-4-(dimethylamino)but-2-en-1-one] was less than 1000 nM.
For the compound `C=CC(=O)Nc1cccc(Oc2ncnc(N)c2-c2cnn(Cc3ccc(OC)cc3)c2)c1` [A72, N-(3-((6-amino-5-(1-(4-methoxybenzyl)-1H-pyrazol-4-yl)pyrimidin-4-yl)oxy)phenyl)acrylamide], the IC50 was less than 100 nM.
As to `CN(C)C/C=C/C(=O)N1CC[C@@H](Nc2ncnc(N)c2-c2ccc(Oc3ccccc3)cc2)C1` [A73, (R,E)-1-(3-((6-amino-5-(4-phenoxyphenyl)pyrimidin-4-yl)amino)pyrrolidin-1-yl)-4-(dimethylamino)but-2-en-1-one], the IC50 is less than 1000 nM.
With `CN(C)C/C=C/C(=O)N1CCC[C@@H](Nc2ncnc(N)c2-c2ccc(Oc3ccccc3)cc2)C1` [A74, (R,E)-1-(3-((6-amino-5-(4-phenoxyphenyl)pyrimidin-4-yl)amino)piperidin-1-yl)-4-(dimethylamino)but-2-en-1-one], the IC50 is less than 1000 nM.
For `C=CC(=O)N1CCC(CNc2ccnc(N)c2-c2ccc(Oc3ccccc3)cc2)CC1` [A76, 1-(4-(((2-amino-3-(4-phenoxyphenyl)pyridin-4-yl)amino)methyl)piperidin-1-yl)prop-2-en-1-one] the value was less than 1000 nM; for `C=CC(=O)N1CCC(CNc2ncnc(N)c2-c2ccc(F)cc2)CC1` [A77, 1-(4-(((6-amino-5-(4-fluorophenyl)pyrimidin-4-yl)amino)methyl)piperidin-1-yl)prop-2-en-1-one], greater than 1000 nM.
As for `C=CC(=O)N1CCC(CNc2ncnc(N)c2-c2ccc(OC(F)(F)F)cc2)CC1` [A78, 1-(4-(((6-amino-5-(4-(trifluoromethoxy)phenyl)pyrimidin-4-yl)amino)methyl)piperidin-1-yl)prop-2-en-1-one], the IC50 is greater than 1000 nM.
For `C=CC(=O)N1CCC(CNc2ncnc(N)c2-c2ccc(Oc3ccc(C(F)(F)F)cc3)cc2)CC1` [A79, 1-(4-(((6-amino-5-(4-(4-(trifluoromethyl)phenoxy)phenyl)pyrimidin-4-yl)amino)methyl)piperidin-1-yl)prop-2-en-1-one] the value was less than 1000 nM; for `C=CC(=O)N1CCC(CNc2ncnc(N)c2-c2ccc(Oc3ccc(F)cc3)cc2)CC1` [A80], less than 1000 nM; for `C=CC(=O)N1CCC(CNc2ncnc(N)c2-c2ccc(C(F)(F)F)cc2)CC1` [A81, 1-(4-(((6-amino-5-(4-(trifluoromethyl)phenyl)pyrimidin-4-yl)amino)methyl)piperidin-1-yl)prop-2-en-1-one], greater than 1000 nM.
For `C=CC(=O)N1CCC(CNc2ncnc(N)c2-c2ccc(OC)c(OC)c2)CC1` [A82, 1-(4-(((6-amino-5-(3,4-dimethoxyphenyl)pyrimidin-4-yl)amino)methyl)piperidin-1-yl)prop-2-en-1-one], the IC50 was greater than 1000 nM.
The value for `C=CC(=O)N1CCC(CNc2ncnc(N)c2-c2cc(OC)c(OC)c(OC)c2)CC1` [A83, 1-(4-(((6-amino-5-(3,4,5-trimethoxyphenyl)pyrimidin-4-yl)amino)methyl)piperidin-1-yl)prop-2-en-1-one] was less than 1000 nM; that for `C=CC(=O)N1CCC(CNc2ncnc(N)c2-c2ccc3c(c2)OCCO3)CC1` [A84, 1-(4-(((6-amino-5-(2,3-dihydrobenzo[b][1,4]dioxin-6-yl)pyrimidin-4-yl)amino)methyl)piperidin-1-yl)prop-2-en-1-one] was greater than 1000 nM.
For `C=CC(=O)N1CCC(CNc2ncnc(N)c2-c2ccc(OC)cc2)CC1` [A85, 1-(4-(((6-amino-5-(4-methoxyphenyl)pyrimidin-4-yl)amino)methyl)piperidin-1-yl)prop-2-en-1-one] the value was greater than 1000 nM; for `C=CC(=O)N1CCC(CNc2ncnc(N)c2-c2ccc(Oc3ccc(C#N)cc3)cc2)CC1` [A86, 4-(4-(4-(((1-acryloylpiperidin-4-yl)methyl)amino)-6-aminopyrimidin-5-yl)phenoxy)benzonitrile], less than 1000 nM; for `C=CC(=O)N1CCC(CNc2ncnc(N)c2-c2cc(F)c(Oc3ccccc3)cc2F)CC1` [A87, 1-(4-(((6-amino-5-(2,5-difluoro-4-phenoxyphenyl)pyrimidin-4-yl)amino)methyl)piperidin-1-yl)prop-2-en-1-one], less than 1000 nM.
For `C=CC(=O)N1CCC(CNc2ncnc(N)c2-c2ccc(Oc3ccccc3)c(F)c2F)CC1` [A88, 1-(4-(((6-amino-5-(2,3-difluoro-4-phenoxyphenyl)pyrimidin-4-yl)amino)methyl)piperidin-1-yl)prop-2-en-1-one] the value was less than 100 nM; for `C=CC(=O)N1CCC2(CCN(c3ncnc(N)c3-c3ccc(Oc4ccccc4)cc3)CC2)C1` [A92, 1-(8-(6-amino-5-(4-phenoxyphenyl)pyrimidin-4-yl)-2,8-diazaspiro[4.5]decan-2-yl)prop-2-en-1-one], less than 1000 nM; for `C=CC(=O)N1CCC2(CCN(c3ncnc(N)c3-c3ccc(Oc4ccccc4)cc3)C2)C1` (centres unmarked) [A93, 1-(7-(6-amino-5-(4-phenoxyphenyl)pyrimidin-4-yl)-2,7-diazaspiro[4.4]nonan-2-yl)prop-2-en-1-one], less than 1000 nM.
For `C=CC(=O)N1CCC(CNc2ncnc(N)c2-c2ccc(Oc3ccc(O)cc3)cc2)CC1` [A94, 1-(4-(((6-amino-5-(4-(4-hydroxyphenoxy)phenyl)pyrimidin-4-yl)amino)methyl)piperidin-1-yl)prop-2-en-1-one], the IC50 is greater than 1000 nM.
The value for `C=CC(=O)N1CCC(CNc2ncnc(N)c2-c2ccc(Oc3cccc(C(F)(F)F)c3)cc2)CC1` [A95, 1-(4-(((6-amino-5-(4-(3-(trifluoromethyl)phenoxy)phenyl)pyrimidin-4-yl)amino)methyl)piperidin-1-yl)prop-2-en-1-one] was less than 100 nM.
For `C=CC(=O)N1CCC(CNc2ncnc(N)c2-c2ccc(Oc3cccnc3)cc2)CC1` [A96, 1-(4-(((6-amino-5-(4-(pyridin-3-yloxy)phenyl)pyrimidin-4-yl)amino)methyl)piperidin-1-yl)prop-2-en-1-one] the value was less than 1000 nM.
For `C=CC(=O)N1CCC(CNc2ncnc(N)c2-c2ccc(Oc3ccncc3)cc2)CC1` [A97, 1-(4-(((6-amino-5-(4-(pyridin-4-yloxy)phenyl)pyrimidin-4-yl)amino)methyl)piperidin-1-yl)prop-2-en-1-one] the value was less than 1000 nM; for `C=CC(=O)N1CCC(CNc2ncnc(N)c2-c2ccc(Oc3ccc(C)cc3)cc2)CC1` [A98], less than 100 nM.
Turning to `C=CC(=O)N1CCC(CNc2ncnc(N)c2-c2ccc(OC3CCCCC3)cc2)CC1` [A99, 1-(4-(((6-amino-5-(4-(cyclohexyloxy)phenyl)pyrimidin-4-yl)amino)methyl)piperidin-1-yl)prop-2-en-1-one], the IC50 is less than 1000 nM.
For `CN(C)C/C=C/C(=O)N1CC2(CC(Oc3ncnc(N)c3Cl)C2)C1` [A102, (E)-1-(6-((6-amino-5-chloropyrimidin-4-yl)oxy)-2-azaspiro[3.3]heptan-2-yl)-4-(dimethylamino)but-2-en-1-one] the value was greater than 1000 nM; for `C=CC(=O)N1CC(CCNc2ncnc(N)c2-c2ccc(Oc3ccccc3)cc2)C1` [A103, 1-(3-(2-((6-amino-5-(4-phenoxyphenyl)pyrimidin-4-yl)amino)ethyl)azetidin-1-yl)prop-2-en-1-one], less than 1000 nM.
The value for `C#CC(=O)N1CC(CCNc2ncnc(N)c2-c2ccc(Oc3ccccc3)cc2)C1` [A104, 1-(3-(2-((6-amino-5-(4-phenoxyphenyl)pyrimidin-4-yl)amino)ethyl)azetidin-1-yl)prop-2-yn-1-one] was less than 100 nM; that for `C=CC(=O)N1CC2(CC(Nc3ncnc(N)c3-c3cnn(Cc4ccccc4)c3)C2)C1` [A107, 1-(6-((6-amino-5-(1-benzyl-1H-pyrazol-4-yl)pyrimidin-4-yl)amino)-2-azaspiro[3.3]heptan-2-yl)prop-2-en-1-one] was less than 1000 nM.
The value for `CC#CC(=O)N1CC2(CC(Nc3ncnc(N)c3-c3ccc(Oc4ccccc4)cc3)C2)C1` [A108, 1-(6-((6-amino-5-(4-phenoxyphenyl)pyrimidin-4-yl)amino)-2-azaspiro[3.3]heptan-2-yl)but-2-yn-1-one] was less than 100 nM.
Turning to `C=CC(=O)N1CC[C@@H](CNc2ncnc(N)c2-c2cnn(Cc3ccccc3)c2)[C@H](O)C1` [A109, 1-((3S,4S)-4-(((6-amino-5-(1-benzyl-1H-pyrazol-4-yl)pyrimidin-4-yl)amino)methyl)-3-hydroxypiperidin-1-yl)prop-2-en-1-one], the IC50 is less than 100 nM.
